Patent US9005575B2, “Arg-Gly-Asp-conjugated alpha-melanocyte stimulating hormone hybrid peptide for use in diagnosing and treating melanoma, including metastatic melanoma and methods related to same” (STC.UNM, priority 2009, dated 2015)
Positions of bridges follow the written chain, without caps; N, C: chain ends. Non-standard residues stand in square brackets, D forms with d. Residues, ends and D or L forms follow the SMILES beside them.

Legend:
[1] = system: B16/F1 murine melanoma cells; experiment: Specificity of cellular uptake (peptide blockade); type: cell-based; conditions: rather than αvβ3 integrin-mediated
Protocol: The specificity of cell binding was determined by incubating ^99mTc-RGD-Lys-(Arg^11)CCMSH with or without non-radioactive peptides. After being washed once with binding media, B16/F1 cells in 24-well cell culture plates were incubated with approximately 200,000 cpm of HPLC purified ^99mTc-RGD-Lys-(Arg^11)CCMSH at 25° C. for 120 min (n=4) in the presence of 0.1 μM of RGD-Lys-(Arg^11)CCMSH, NDP-MSH, (Arg^11)CCMSH or RGD in 0.5 ml of binding media, respectively. The reaction media were aspirated after the incubation. The cells were rinsed twice with 0.5 ml of ice-cold pH 7.4, 0.2% BSA/0.01 M PBS and lysed in 0.5 ml of 1 N NaOH for 5 min. The activities associated with cells were measured in a gamma counter. Statistical analysis was performed using the Student's t-test for unpaired data.
The specificity of cellular uptake was determined by incubating ^99mTc-RGD-Arg-(Arg^11)CCMSH with or without non-radioactive peptides. After being washed once with binding medium, B16/F1 cells in 24-well cell culture plates were incubated with approximately 200,000 cpm of HPLC purified ^99mTc-RGD-Arg-(Arg^11)CCMSH at 25° C. for 120 min (n=3) in the presence of 0.1 μM of RGD-Arg-(Arg^11)CCMSH, (Arg^11)CCMSH, RGD or no peptide blockade in 0.5 mL of binding medium, respectively. The reaction medium was aspirated after the incubation. The cells were rinsed twice with 0.5 mL of ice-cold pH 7.4, 0.2% BSA/0.01 M PBS and lysed in 0.5 mL of 1 N NaOH for 5 min. The activities associated with cells were measured in a gamma counter.

[2] = Effect of L-lysine co-injection on renal and tumor uptakes; type: in vivo, C57 mice; conditions: 15 mg of L-lysine, 2 h post-injection; for tissue uptake at 2 h: C57, mouse, kidneys, with L-lysine, 15 mg co-injected, total radioactivity
Protocol: The effects of L-lysine co-injection on the renal uptakes of ^99mTc-RGD-Arg-(Arg^11)CCMSH and ^99mTc-RGD-Lys-(Arg^11)CCMSH was examined in B16/F1 melanoma-bearing C57 as well. Two groups of 5 mice were injected with an aqueous mixture of 0.037 MBq of ^99mTc-RGD-Arg-(Arg^11)CCMSH and 15 mg of L-lysine or an aqueous mixture of 0.037 MBq of ^99mTc-RGD-Lys-(Arg^11)CCMSH and 15 mg of L-lysine, respectively. The mice were sacrificed at 2 h post-injection, and tumors and kidneys were harvested, weighed and counted.

B16/F1 melanoma = experiment: SPECT/CT imaging of melanoma; type: in vivo, C57 mouse; conditions: 2 h post-injection
Protocol: (§1) A B16/F1 melanoma-bearing C57 mouse was injected with 10.4 MBq of ^99mTc-RGD-Lys-(Arg^11)CCMSH via the tail vein. The mouse was anesthetized with 1.5% isoflurane for small animal SPECT/CT (Nano-SPECT/CT®, Bioscan) imaging 2 h post-injection. The 9-min CT imaging was immediately followed by the SPECT imaging of whole-body. The SPECT scans of 24 projections were acquired and total acquisition time was approximately 45 min. After the SPECT imaging, the mouse was euthanized with CO2 inhalation. Reconstructed data from SPECT and CT were visualized and co-registered using InVivoScope (Bioscan, Washington D.C.).
as §1, with “6.1” for “10.4”, “^99mTc-RGD-Arg-(Arg^11)CCMSH” for “^99mTc-RGD-Lys-(Arg^11)CCMSH”, “9-min.” for “9-min”

[3] = Urinary metabolites by HPLC; type: in vivo, C57 mouse; conditions: urine, 2 h post-injection, RP-HPLC
Protocol: (§2) Urinary metabolites of ^99mTc-RGD-Lys-(Arg^11)CCMSH were determined by injecting 3.7 MBq of ^9″Tc-RGD-Lys-(Arg^11)CCMSH into a B16/F1 melanoma-bearing C57 mouse through the tail vein. At 2 h after dose administration, the mouse was euthanized and the urine was collected. The radioactive metabolites in the urine were analyzed by injecting aliquots of urine into HPLC. A 20-minute gradient of 16-26% acetonitrile/20 mM HCl was used for the urine analysis.
as §2, with “^99mTc-RGD-Arg-(Arg^11)CCMSH” for “^99mTc-RGD-Lys-(Arg^11)CCMSH”, “^99mTc-RGD-Arg-(Arg^11)CCMSH” for “^9″Tc-RGD-Lys-(Arg^11)CCMSH”

Effect of L-lysine co-injection on the tumor uptake [2]	Reduction of renal uptake by L-lysine co-injection [2] [%]	tissue uptake at 2 h [2] [%ID/g]	Urinary radioactivity: remained intact [3]	Urinary radioactivity: transformed to more lipophilic metabolite(s) [3] [%]	Structure (SMILES)	Mechanism of cellular uptake [1]	Visualization of flank melanoma tumors by SPECT/CT (B16/F1 melanoma)
without affecting	27.7	31.1 ± 6.42	Approximately 73%	27	CC(C)[C@H](NC(=O)[C@@H]1CCCN1C(=O)[C@H](CCCNC(=N)N)NC(=O)[C@H](CS)NC(=O)[C@H](Cc1c[nH]c2ccccc12)NC(=O)[C@H](CCCNC(=N)N)NC(=O)[C@@H](Cc1ccccc1)NC(=O)[C@H](Cc1c[nH]cn1)NC(=O)[C@H](CCC(=O)O)NC(=O)[C@H](CS)NC(=O)[C@H](CS)NC(=O)[C@H](CCCNC(=N)N)NC(=O)[C@@H]1CC(=O)N[C@@H](CCCNC(=N)N)C(=O)NCC(=O)N[C@@H](CC(=O)O)C(=O)N[C@H](Cc2ccc(O)cc2)C(=O)N1)C(N)=O [^99mTc-RGD-Arg-(Arg^11)CCMSH, metal not drawn] (RGD[dY]DRCCEH[dF]RWCRPV-NH2; lactam N-5)	MC1 receptor-mediated	visualized clearly
without affecting	52.1	32.2 ± 5.98	Approximately 68%	32	CC(C)[C@H](NC(=O)[C@@H]1CCCN1C(=O)[C@H](CCCNC(=N)N)NC(=O)[C@H](CS)NC(=O)[C@H](Cc1c[nH]c2ccccc12)NC(=O)[C@H](CCCNC(=N)N)NC(=O)[C@@H](Cc1ccccc1)NC(=O)[C@H](Cc1c[nH]cn1)NC(=O)[C@H](CCC(=O)O)NC(=O)[C@H](CS)NC(=O)[C@H](CS)NC(=O)[C@H](CCCCN)NC(=O)[C@@H]1CC(=O)N[C@@H](CCCNC(=N)N)C(=O)NCC(=O)N[C@@H](CC(=O)O)C(=O)N[C@H](Cc2ccc(O)cc2)C(=O)N1)C(N)=O [^99mTc-RGD-Lys-(Arg^11)CCMSH, metal not drawn] (RGD[dY]DKCCEH[dF]RWCRPV-NH2; lactam N-5)	MC1 receptor-mediated	visualized clearly
